Converted amounts (≈) assume the structure as drawn.
How the values were obtained:
E. coli strain 25922 = assay: MIC by broth microdilution, E. coli strain 25922; type: cell-based; conditions: Escherichia coli, salt: none, read-out: Inhibitory Concentration (MIC) Ec 25922
Procedure: (§1) Bacterial isolates were cultivated from −70° C. frozen stocks by two consecutive overnight passages at 35° C. in ambient air on 5% blood agar (Remel, Lenexa, Kans.). Quality control and P. aeruginosa ATCC 27853) is from the American Type Culture Collection (ATCC; Rockville, Md.) and PAO1 was received from Dr. K. Poole.
Minimal Inhibitory Concentrations (MICs) were determined by the broth microdilution method in accordance with Clinical and Laboratories Institute (CLSI) guidelines. In brief, fresh overnight bacterial cultures were suspended in sterile saline, and adjusted to a 0.5 McFarland turbidity standard. Bacterial suspensions were then diluted in cation adjusted Mueller-Hinton Broth (MHB II; BBL) to yield a final inoculum of approximately 5×10^5 colony-forming units (CFU)/mL. A master plate of antibiotics was prepared at a concentration equivalent to hundred-fold the highest desired final concentration in 100% dimethyl sulfoxide (DMSO). […] The assay plates were read using a microtiter plate reader (Molecular Devices) at 600 nm as well as by visual observation with a reading mirror. The lowest concentration of the compound that prevented visible growth was recorded as the MIC. Performance of the assay was monitored by testing aztreonam against laboratory quality control strains in accordance with guidelines of the CLSI.

Photochemical stability = type: physicochemical
Procedure: Compound X (500 mg) and L-arginine (332.5 mg) are combined in a vial. Saccharose (crystalline, pyrogen-free sucrose: 1000 mg) is added along with water suitable for injection (8.00 mL). The pH of the solution is adjusted, if necessary, using 1.0N HCl or 1.0N NaOH to arrive at a pH of 5.0±0.5, preferably a pH of 5.0±0.2. This provides a solution containing about 62.5 mg/mL of Compound X as an arginine salt. This solution can be filtered if necessary, and can be lyophilized to provide a white or off-white solid (lyophilizate). The lyophilized solid can be reconstituted with sterile water or a pharmaceutically acceptable aqueous carrier such as isotonic saline or dextrose to provide a solution suitable for intravenous administration. The lyophilizate should be stored in a container that excludes light to protect the lyophilizate from photodegradation. This process can be scaled up or down to provide unit dosages for storage and distribution, or bulk material that can be further processed as desired.
In one embodiment of the invention, Compound X is packaged in a container that substantially reduces exposure to light, preferably in an atmosphere at a relative humidity of 25-50% humidity and more preferably at a relative humidity of 30-40% or 30-45%.

[1] = Stability of Compound X and its salts in aqueous solution; type: physicochemical
Description: It is important for a drug product to be stable enough to avoid significant degradation when it is shipped and stored under commercially practical conditions. The inventors have discovered that Compound X in solution is preferably used and stored at a pH between 4 and 6, preferably between 4.0 and 5.5, for maximum stability in the presence of moisture. Optimal solution stability is achieved at a pH of about 4.0 to 5.5 Accordingly, the invention provides pharmaceutical compositions comprising Compound X at a pH between 4 and 6, preferably between 4.0 and 5.5, and more preferably at a pH of about 5±0.5 or at pH of 5±0.2. Suitable compositions comprise Compound X in an aqueous solution, such as a dextrose or saline solution, which may be isotonic, and may contain other substances such as stabilizers, antioxidants, buffers or pH modifiers, nutrients, and the like. In some of these embodiments, the desired pH is achieved by combining Compound X and a pH modifier suitable to achieve the desired pH in an aqueous solution. Suitable pH modifiers include but are not limited to sodium hydroxide, sodium carbonate, sodium bicarbonate, potassium carbonate, potassium hydroxide, amines such as TRIS (tris(hydroxymethyl)aminomethane), and amino acids such as arginine, lysine, histidine, and the like. Known monobactams, including aztreonam, have been formulated with arginine. […]

[2] = tested on: E. coli NB27273-CDY0033 (KPC2); assay: MIC by broth microdilution, isogenic E. coli expressing KPC2; type: cell-based; conditions: Escherichia coli, read-out: Inhibitory Concentration (MIC) Ec KPC2 Iso
Procedure: as §1
(§2) Strain NB27273 (BW25113 pspB::Km^r) was obtained from the Keio transposon insertion collection. The strain has the pspB gene replaced by a kanamycin resistance marker (BW25113 pspB::Km^r). This strain was cured of the transposon in pspB via FLP recombinase using published methodology. The resulting strain, BW25113 pspB, was used as a host for multicopy vectors expressing key β-lactamases. Multicopy plasmids directing constitutive expression of β-lactamases were established as follows: Synthetic, codon optimized genes encoding E. coli KPC2 and SHV12-lactamases were made by DNA2.0 (Palo Alto, Calif.). Each of the synthetic fragments were designed to contain NotI and NcoI restriction sites at their termini, allowing ligation into a NotI/NcoI digested pET28a(+) derivative for protein expression. […]

[3] = Stability testing of solid salts at 25° C. and 40° C., purity by HPLC; type: physicochemical; conditions: solid salt
Procedure: Salts of Compound X were prepared by adding a base (1.0 or 2.0 equiv.) to Compound X in water, and lyophilizing the solution. The solids thus obtained appear to be amorphous by XRPD. In this manner, formation of salts of Compound X were attempted with sodium hydroxide, (L)-lysine, (L)-arginine, calcium hydroxide, meglumine, and magnesium hydroxide.
Samples of the disodium salt and the di-(L)-arginine salt as solids were subjected to stability testing at 25° C. and 40° C. The sample of sodium salt was 97.2% pure by HPLC initially, and after 6 weeks at 25° C., it was still 96.2% pure. The same material held at 40° C. was 94.8% pure after 3 weeks, and 93.6% pure after 6 weeks. Significant impurities that appear or increase during the study appear at relative retention times (RRT) 0.34 and 1.11 (with Compound X defined as RRT=1).
The arginine salt was 97.3% pure by HPLC initially, and was 96.3% pure after 6 weeks at 25° C. At 40° C., its purity dropped to 95.1% after 3 weeks and 94.2% after 6 weeks. Significant impurities that appear or increase during this study appear at relative retention times (RRT) 1.09, 1.11 and 1.13 (with Compound X defined as RRT=1). The HPLC traces for the samples from these stability studies after 6 weeks at 25° C. and 40° C. respectively are shown in FIGS. 10 and 11. The lower trace in each Figure is a sample used to measure the limit of quantitation (LOQ); the next trace above that represents the sample of Compound X used for salt formation; the next trace above that one is for the arginine salt after 6 weeks; and the next (top) trace is for the sodium salt after 6 weeks.
HPLC Conditions for the stability studies (FIGS. 10 and 11):
Agilent 1290 system with UV detector at 260 nm
Acquity HSS T3 column, 100 mm×2.1 mm ID; 1.8 μm particle size (supplied by Waters)
• A: 0.05% TFA in water • B: 0.05% TFA in methanol Flow rate: 0.45 mL/min Gradient (A/B ratio): 97:3 for 8 minutes; 75:25 for 3 minutes; 0:100 for 1 minute

[4] = tested on: E. coli NB27273-CDY0026 (parent); assay: MIC by broth microdilution, isogenic E. coli parent strain; type: cell-based; conditions: Escherichia coli, read-out: Strain 1 MIC
Procedure: as §1, §2

Structure (SMILES): Nc1nc(/C(=N/OC2(C(=O)O)CC2)C(=O)N[C@@H]2C(=O)N(S(=O)(=O)O)[C@@H]2CN2CCOC2=O)cs1 [Compound X, 1-(((Z)-(1-(2-aminothiazol-4-yl)-2-oxo-2-(((3S,4R)-2-oxo-4-((2-oxooxazolidin-3-yl)methyl)-1-sulfoazetidin-3-yl)amino)ethylidene)amino)oxy)cyclopropanecarboxylic acid]
- MIC (E. coli strain 25922): 250 µg/mL
- photochemical stability (Photochemical stability): degrade photochemically
- hydrolytic stability in water ([1]; in solution, before addition of arginine or other base): subject to hydrolytic degradation in water in the absence of a base or outside the pH range of 4-6
- MIC [2]: 125 µg/mL (≈ 241 µM)

Structure (SMILES): N=C(N)NCCC[C@H](N)C(=O)O.N=C(N)NCCC[C@H](N)C(=O)O.Nc1nc(/C(=N/OC2(C(=O)O)CC2)C(=O)N[C@@H]2C(=O)N(S(=O)(=O)O)[C@@H]2CN2CCOC2=O)cs1 [arginine salt]
- purity by HPLC ([3]; after 3 weeks at 40° C.): 95.1%
- purity by HPLC ([3]; after 6 weeks at 25° C.): 96.3%
- purity by HPLC ([3]; after 6 weeks at 40° C.): 94.2%
- purity by HPLC ([3]; initially): 97.3%
- stability of salts ([1]; salts made with 1.0 or 2.0 equiv. base, lyophilized, for aqueous media for intravenous use): particularly stable

Structure (SMILES): C[C@H]1[C@H](NC(=O)/C(=N\OC(C)(C)C(=O)O)c2csc(N)n2)C(=O)N1S(=O)(=O)O [compound 1]
- MIC [4]: 0.125 µg/mL (≈ 0.287 µM)
